Tests used:
Assay type in all cases: in vivo, mouse
[1] = system: male mice; assay: Subthreshold social defeat stress (SSDS) followed by social interaction test; details: for stress-induced social interaction deficits: chronic treatment (silastic implant or minipump), orchiectomized male mice + SSDS; for social interaction (sociability) deficits: orchiectomized male mice
Procedure: (§1) Subthreshold social defeat stress: Retired CD1 breeders are singly housed and used as aggressors. Experimental mice are introduced to the home cage of an aggressor for 2 min to initiate the physical attack phase. Afterward, mice are transferred and housed on the opposite side of the aggressor, in the same cage separated by a perforated Plexiglass divider for 15 mins in order to maintain sensory contact. This process is repeated 3 times over a period of ~50 min.
(§2) Social Interaction: Mice are placed in a rectangular box (40 cm length×30 cm width×35 cm height; Stoelting, IL) divided into three compartments (two equal-sized end-chambers and a middle chamber) for five minute habituation phase (10-15 lux). After the habituation phase, two small wire cages are introduced into the two end chambers, one containing an unfamiliar, non-aggressive CD1 mouse and the other remaining empty. The amount of time mice spent sniffing each cage during the five-min test is assessed using CleverSys tracking software (CleverSys, Inc, Reston VA, USA).
(§3) For the chronic administration paradigms, silastic tubes (1.02 mm inner diameter×2.16 mm outer diameter) were filled with testosterone (10 mm) or 17β-Estradiol (E2; 1,3 and 10 mm; Sigma-Aldrich, St. Louis, MO, USA). Silastic implants were primed in 0.9% saline at 37° C. overnight prior to their subcutaneous use. Letrozole (1 mg/kg/day; Sigma-Aldrich, St. Louis, MO, USA) was dissolved in propylene glycol (MP Biomedicals, Santa Ana, CA, USA) and administered through ALZET minipumps (Model 1002, 0.25 μl/hour, 14 days; Cupertino, CA, USA). DHED (synthesized using previously described methods) was dissolved in 0.9% saline and administered through ALZET minipumps (Model 1002, 0.25 μl/hour, 14 days; Cupertino, CA, USA) at a dose of […]. Flutamide was administered through 1.5 mg slow-release subcutaneous pellets (Innovative Research of America, Sarasota, FL, USA). For acute administration, 17β-Estradiol (E2; 10 and […]) was dissolved in sesame oil (4 ml/kg, s.c.; Sigma-Aldrich, St. Louis, MO, USA).
(§4) Retired CD1 breeders were singly housed and used as aggressors. Two days prior to the start of the experiment, experimental mice were also singly housed. The stress procedure was performed using previously described methods. Briefly, experimental mice were introduced to the home cage of an aggressor for 2 min to initiate the physical attack phase. Afterward, mice were transferred and housed on the opposite side of the aggressor, in the same cage separated by a perforated Plexiglass divider for 15 mins in order to maintain sensory contact. This process was repeated 3 times over a period of ~50 min. Following the completion of the third cycle, mice were placed back in their home cages.
(§5) Acute E2 was administered 45 min prior to the initiation of stress or 5 min after the completion of stress. For the optogenetic stimulation, ChR2 and YFP-injected mice received a 4 Hz, 5 ms pulse width, 10-15 mW 470 nm light stimulation for 45 min prior to the initiation of stress. This stimulation paradigm was shown previously to increase synaptic transmission. The optogenetic set up consisted of an LED driver paired with a fiber-coupled LED light source attached to a bifurcated optogenetic path cable (400 μm, 0.49 NA; ThorLabs, Newton NJ, USA).
as §2, with “Social interaction was performed 24 hours following subthreshold social defeat or inescapable foot-shock stress. For the habituation phase, mice were” for “Social Interaction: Mice are”, “five minutes” for “five minute habituation phase”, “cages were” for “cages are”, “test was” for “test is”

[2] = system: male mice; assay: Subthreshold social defeat stress followed by female urine sniffing test (anhedonia); details: for stress-induced anhedonia: chronic treatment (silastic implant or minipump), orchiectomized male mice + SSDS; for anhedonia (female urine preference): orchiectomized male mice
Procedure: as §1
(§6) Female Urine Preference Test: is performed 24 hours after the social interaction test as using previously described methods. The amount of time mice spent interacting with a cotton-tipped applicator soaked in either fresh male or female mouse urine during a total of 3 minutes is analyzed by an experimenter blind to the experimental groups.
as §3, §4, §5
as §6, with “FUST procedure was” for “Female Urine Preference Test: is”, “and 48 hours after stress. FUST was performed” for “as”, “was” for “is”

[3] = system: gonadectomized mice; assay: Inescapable foot shock stress followed by female urine preference; details: 10 mm silastic implant; for stress-induced female urine preference deficits: orchiectomized males, inescapable foot shock
Procedure: Determine effects of E2 on gonadectomy-induced susceptibility to inescapable traumatic shock stress in males and females. Most of these experiments assess the effects of social defeat stress. In this experiment the effects of an alternative type of stress-inescapable foot shocks are assessed—to determine whether the observed biological effects of E2 are stress specific. […] The effects of this stress on maladaptive behaviors and their possible reversal by testosterone and E2 are assessed. The following groups of mice are used for this experiment: (1) Sham Surgery+empty silastic tube; (2) ORX+empty silastic tube; (3) Sham Surgery+testosterone (10 mm) containing silastic tube; (4) ORX+testosterone (10 mm) containing silastic tube; (5) Sham Surgery+E2 (10 mm) containing silastic tube; (6) ORX+E2 (10 mm) containing silastic tube. Mice are exposed to inescapable foot shock (0.3 mA shocks; 180 shocks at 15 sec intervals) in a two-chambered shuttle box with a permanent divider in place. Controls are placed in the same chambers but will not receive shocks. Twenty-four hours later mice are subsequently tested for social interaction and female urine preference. As a comparison to male results, a similar experiment is conducted in females with the following groups: (1) Sham Surgery+empty silastic tube; (2) OVX+empty silastic tube; (3) Sham Surgery+E2 (10 mm) containing silastic tube; (4) OVX+E2 (10 mm) containing silastic tube. It is predicted that the effects of orchiectomy in males are reproduced to enhance stress-induced decreases in female urine preference deficits, which will be prevented by both testosterone and E2.

[4] = acute administration 5 min after SSDS
[5] = acute s.c. administration 45 min prior to SSDS

Compound | stress-induced social interaction deficits [1] | maladaptive behaviors (social interaction, anhedonia) ([1]; chronic treatment, gonadally intact or non-stressed mice) | stress-induced anhedonia [2] | stress-induced female urine preference deficits [3] | social interaction (sociability) deficits [1, 4] | social interaction (sociability) deficits [1, 5] | stress-susceptible phenotype induced by low testosterone ([1]; orchiectomized mice on low dose testosterone + SSDS) | anhedonia (female urine preference) [2, 4] | anhedonia (female urine preference) [2, 5] | effects of ovariectomy plus foot shock stress ([3]; ovariectomized females)
C[C@]12CC[C@H]3[C@@H](CCC4=CC(=O)CC[C@@]43C)[C@@H]1CC[C@@H]2O [Testosterone, testosterone] | reversed the observed maladaptive behaviors | no effect | reversed the observed maladaptive behaviors | prevented | – | – | – | – | – | –
C[C@]12CC[C@@H]3c4ccc(O)cc4CC[C@H]3[C@@H]1CC[C@@H]2O [Example E2, 17β-Estradiol] | reversed the stress-induced social avoidance | – | reversed | prevented | reversed only the anhedonia phenotype | prevented the development of both sociability deficits | completely recover the phenotype | reversed only the anhedonia phenotype | prevented | prevented by the replacement of E2

Reference: US20260248809A1, “ESTRADIOL PRODRUGS AND METHODS OF USE THEREOF” (UNIVERSITY OF MARYLAND, BALTIMORE, priority 2022, published 2026)
